According to ChEMBL document CHEMBL1158133, “Cytotoxic flavaglines and bisamides from Aglaia edulis” (J Nat Prod, 2006):
≈ marks a conversion by molar mass, not a printed value.

What was measured:
Lu1 = experiment: Cytotoxicity against human Lu1 cells; format: functional; settings: read-out: ED50 (the source's name)
LNCaP = experiment: Cytotoxicity against human LNCAP cells; format: functional; settings: read-out: ED50 (the source's name)
MCF7 = experiment: Cytotoxicity against human MCF7 cells; format: functional; settings: read-out: ED50 (the source's name)
[1] = Cytotoxicity against HUVEC; format: cell-based; settings: human, HUVEC cells; read-out: ED50 (the source's name)
P388 = experiment: In vivo antitumor activity against mouse P388 cellsleukemia model at 4.5 mg/kg, ip; format: functional; settings: route intraperitoneal

| Structure (SMILES) | EC50 (Lu1) [µg/mL] | EC50 (LNCaP) [µg/mL] | EC50 (MCF7) [µg/mL] | CC50 [1] [µg/mL] | T/C (P388) [%] |
| --- | --- | --- | --- | --- | --- |
| COc1ccc([C@@]23Oc4cc5c(c(OC)c4[C@]2(O)[C@H](OC(C)=O)[C@H](C(=O)N(C)C)[C@H]3c2ccccc2)OCO5)cc1 | 0.001 (≈ 0.00178 µM) | 0.01 (≈ 0.0178 µM) | 0.02 (≈ 0.0356 µM) | 0.5 (≈ 0.89 µM) | 110 |
| COc1ccc([C@@]23Oc4cc5c(c(OC)c4[C@]2(O)[C@H](OC(C)=O)[C@H](C(=O)N(C)C)[C@H]3c2ccccc2)OCO5)cc1OC | 0.5 (≈ 0.845 µM) | 0.3 (≈ 0.507 µM) | 0.8 (≈ 1.35 µM) | 0.5 (≈ 0.845 µM) |  |
| COc1ccc([C@]23Oc4cc5c(c(OC)c4[C@](O)([C@H](C(=O)N4CCCC4NC(=O)CC(C)C)[C@H]2c2ccccc2)[C@@H]3OC(C)=O)OCO5)cc1 (stereo not given in full) | > 5 | > 5 | > 5 | > 5 |  |
| COc1ccc(-c2oc3cc(OC)c(OC)c(O)c3c(=O)c2OC)cc1 | > 5 | > 5 | > 5 | > 5 |  |
| COc1ccc([C@]23Oc4cc5c(c(OC)c4[C@](O)([C@H](C(=O)N4CCCC4NC(=O)C=C(C)C)[C@H]2c2ccccc2)[C@@H]3O)OCO5)cc1 (stereo not given in full) [19,20-DEHYDROEDULIRIN A] | > 5 | > 5 | > 5 | > 5 |  |
| COC(=O)[C@@]1(c2ccc(OC)cc2)Oc2cc3c(c(OC)c2C(=O)[C@H](C(=O)N2CCC[C@@H]2NC(=O)C=C(C)C)[C@H]1c1ccccc1)OCO3 [19,20-DEHYDROEDULISONE A] | > 5 | > 5 | > 5 | > 5 |  |
| COc1ccc(C2C(=O)Oc3cc4c(c(OC)c32)OCO4)cc1 (stereo not given) [AGLALACTONE] | > 5 | > 5 | > 5 | > 5 |  |
| CS/C=C/C(=O)NC1CCCN1C(=O)/C=C/c1ccccc1 (stereo not given) [AGLAMIDE A] | > 5 | > 5 | > 5 | > 5 |  |
| C[S+]([O-])/C=C/C(=O)NC1CCCN1C(=O)/C=C/c1ccccc1 (stereo not given) [AGLAMIDE B] | > 5 | > 5 | > 5 | > 5 |  |
| CC(C)CC(=O)NC1CCCN1C(=O)/C=C/c1ccccc1 (stereo not given) [AGLAMIDE C] | > 5 | > 5 | > 5 | > 5 |  |
| COC1CCCN1C(=O)/C=C/c1ccccc1 (stereo not given) [AGLAMIDE D] | > 5 | > 5 | > 5 | > 5 |  |
| COc1ccc([C@@]23Oc4cc5c(c(OC)c4[C@]2(O)[C@H](O)[C@H](C(=O)N(C)C)[C@H]3c2ccccc2)OCO5)cc1 [AGLAROXIN A] | 0.04 (≈ 0.077 µM) | 0.02 (≈ 0.0385 µM) | 0.06 (≈ 0.115 µM) | 0.1 (≈ 0.192 µM) |  |
| COc1ccc([C@]23Oc4cc5c(c(OC)c4[C@](O)([C@H](C(=O)N4CCCC4NC(=O)CC(C)C)[C@H]2c2ccccc2)[C@@H]3O)OCO5)cc1 (stereo not given in full) [EDULIRIN A] | > 5 | > 5 | > 5 | > 5 |  |
| COc1ccc([C@]23Oc4cc5c(c(OC)c4[C@](O)([C@H](c4ccccc4)[C@H]2C(=O)N2CCCC2NC(=O)CC(C)C)[C@@H]3O)OCO5)cc1 (stereo not given in full) [EDULIRIN B] | > 5 | > 5 | > 5 | > 5 |  |
| COc1ccc([C@]23Oc4cc5c(c(OC)c4[C@](O)([C@@H](c4ccccc4)[C@@H]2C(=O)N2CCCC2NC(=O)CC(C)C)[C@@H]3O)OCO5)cc1 (stereo not given in full) [ISOEDULIRIN A] | > 5 | > 5 | > 5 | > 5 |  |
| COc1cc2ccc(=O)oc2cc1O [SCOPOLETIN] | > 5 | > 5 | > 5 | > 5 |  |
